Results: ChEMBL document CHEMBL1136876, “On the inhibition of HIV-1 protease by hydrazino-ureas displaying the N-->C=O interaction” (Bioorg Med Chem, 2009)

Columns and labels:
Protease [1] = molecular target: T1, Protease (Human immunodeficiency virus 1, UniProt Q9YQ12); test: Inhibition of HIV1 protease by FRET assay
Protease [2] = molecular target: T1, Protease; test: Inhibition of HIV1 protease by Lineweaver-Burke method
Protease [3] = molecular target: T1, Protease; test: Inhibition of HIV1 protease by Hanes method
Protease [4] = molecular target: T1, Protease; test: Inhibition of HIV1 protease by Dixon method

T1 sequence (Q9YQ12 whole entry): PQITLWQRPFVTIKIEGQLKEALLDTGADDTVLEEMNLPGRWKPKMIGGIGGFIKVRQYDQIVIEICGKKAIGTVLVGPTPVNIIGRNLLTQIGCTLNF

IC50 (Protease [1]) [µM]	Ki (Protease [2]) [µM]	Ki (Protease [3]) [µM]	Ki (Protease [4]) [µM]	Structure (SMILES)
204	99	96	96	CC(C)[C@H](N)C(=O)N[C@]1(Cc2ccccc2)CC[N+]2(CCC[C@H]2C(=O)NC(=O)[C@@H](NC(C)(C)C)C(C)C)C1[O-] (some centres undefined)
341	292	292	286	CC(C)[C@H](NC(C)(C)C)C(=O)NC(=O)[C@@H]1CCC[N+]12C([O-])[C@H](Cc1ccccc1)NC(=O)N2Cc1ccccc1 (some centres undefined)
543	461	461	454	O=C1N[C@H](Cc2ccccc2)C([O-])[N+]2(CCCCC2)N1Cc1ccccc1 (some centres undefined)
> 1000				C=CCOC(=O)N[C@]1(Cc2ccccc2)CC[N+]2(CCC[C@H]2C(=O)OC)C1[O-] (some centres undefined)
37.2	26.2	26.2	34.8	O=C1N[C@@H](Cc2ccccc2)C([O-])[N+]2(CCCCC2)N1Cc1ccccc1 (some centres undefined)
44.5	34.3	34.3	43.9	CC(C)(C)NC(=O)[C@@H]1CCC[N+]12C([O-])[C@H](Cc1ccccc1)NC(=O)N2Cc1ccccc1 (some centres undefined)
545	574	618	577	CC(C)[C@H](N)C(=O)N[C@]1(Cc2ccccc2)CC[N+]2(CCC[C@H]2C(=O)NC(C)(C)C)C1[O-] (some centres undefined)
169	149	149	138	CC[C@H](C)[C@H](NC(=O)[C@@H](NC(C)(C)C)C(C)C)C(=O)NC(=O)[C@@H]1CCC[N+]12C([O-])[C@H](Cc1ccccc1)NC(=O)N2Cc1ccccc1 (some centres undefined)
